Results published in patent US20190175491A1, “TOPICAL COMPOSITIONS OF APREMILAST” (TORRENT PHARMACEUTICALS LIMITED, priority 2016, published 2019).

Experiments:
[1] = oral Apremilast; cited from earlier work
[2] = cited from earlier work
Solubility of apremilast = format: physicochemical
Excerpt: Apremilast is insoluble in water. Even in polar solvent phase, only 0.066% of apremilast was found soluble. Therefore, it is challenging to formulate a topical composition of apremilast having an amount, which provides effective concentration of apremilast at the site of action.

- apremilast found soluble in polar solvent phase (Solubility of apremilast): 0.066%
Structure (SMILES): CCOc1cc([C@@H](CS(C)(=O)=O)N2C(=O)c3cccc(NC(C)=O)c3C2=O)ccc1OC [Apremilast, N-{2-[(1S)-1-(3-Ethoxy-4-methoxyphenyl)-2-(methylsulfonyl)ethyl]-1,3-dioxo-2,3-dihydro-1H-isoindol-4-yl} acetamide]
- most commonly reported adverse reactions [1]: Diarrhea, nausea and headache
- solubility in water [2]: insoluble
